Test systems include CCRF-CEM; SK-MEL-5; HCT-116; RPMI-8226; NCI-H460; NCI/ADR-RES; 786-0; TK-10; Hs-578T; NCI-H522; A549; SK-OV-3; OVCAR-8; SNB-75; NCI-H226; UACC-257; SF-268; MDA-N; SR; SF-295.
Holding throughout (assay): NCI-60 cell line screen, 48 h

Molecules are shown by their SMILES.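 In this assay, cells in 96-well plates receive the compound at five concentrations for 48 hours. Endpoints are linearly interpolated between the surrounding concentrations. Abbreviation: GI50, concentration required for 50% inhibition of growth.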 The source made the active and inactive calls. Cut-off read from the data, not from the text of the source: active = GI50 up to about 1.1 µM and inactive = higher.

Take `O=C(O)CCC1(C(=O)O)CCC(=O)c2ccccc21` (stereo not given): the GI50 with CCRF-CEM, in the experiment with SK-MEL-5, with HCT-116, with RPMI-8226, with NCI-H460 and in the experiment with NCI/ADR-RES was > 100 µM (inactive) each time. Moreover, the GI50 with 786-0, with TK-10, with Hs-578T, with NCI-H522, in the experiment on A549 and in the experiment with SK-OV-3 was > 100 µM (inactive) throughout. Also, the GI50 in the experiment with OVCAR-8, with SNB-75, with NCI-H226, in the experiment on UACC-257, in the experiment on SF-268 and in the experiment on MDA-N was > 100 µM (inactive) each time. The GI50 in the experiment on SR and in the experiment on SF-295 was > 100 µM (inactive) each time.
As to `O=C(/C=C/c1cccc(Br)c1)c1ccc(Cl)cc1`, the GI50 in the experiment with CCRF-CEM was 4.5 µM (inactive); in the experiment on SK-MEL-5, 14.2 µM (inactive); with HCT-116 it was 5.35 µM (inactive); in the experiment with RPMI-8226 it was 2.08 µM (inactive); in the experiment with NCI-H460, 16.9 µM (inactive); with NCI/ADR-RES, 21.7 µM (inactive). In addition, the GI50 with 786-0 was 14.3 µM (inactive); with TK-10, 13 µM (inactive); in the experiment on Hs-578T it was 22.7 µM (inactive); in the experiment on NCI-H522, 13.6 µM (inactive); with A549 it was 16.8 µM (inactive); with SK-OV-3 it was 21.1 µM (inactive). Also, the GI50 in the experiment on OVCAR-8 was 17 µM (inactive); with SNB-75, 13.6 µM (inactive); in the experiment with NCI-H226 it was 18.8 µM (inactive); in the experiment on UACC-257 it was 17.1 µM (inactive); in the experiment on SF-268 it was 17.5 µM (inactive); in the experiment on MDA-N, 6.32 µM (inactive). For the same molecule, the GI50 with SR was 2.42 µM (inactive); in the experiment on SF-295, 17.5 µM (inactive).
On to `COc1cc2c(cc1Cl)[n+]([O-])c(C#N)c(N1CCN(c3ccc([N+](=O)[O-])cc3)CC1)[n+]2[O-]`, for which the GI50 in the experiment on CCRF-CEM was 8.73 µM (inactive); with SK-MEL-5, 16.6 µM (inactive); in the experiment on HCT-116, 24 µM (inactive); in the experiment on RPMI-8226 it was 0.631 µM (active); in the experiment on NCI-H460 it was 7.78 µM (inactive); in the experiment with NCI/ADR-RES, 15.5 µM (inactive). For the same molecule, the GI50 is 12.7 µM (inactive) in the experiment with 786-0; 27.3 µM (inactive) in the experiment with TK-10; 10.3 µM (inactive) with Hs-578T; 5.7 µM (inactive) in the experiment on NCI-H522; 11.6 µM (inactive) in the experiment with A549; 23.9 µM (inactive) in the experiment on SK-OV-3. Further, the GI50 in the experiment with OVCAR-8 was 7.28 µM (inactive); with SNB-75, 17.4 µM (inactive); in the experiment on NCI-H226, > 100 µM (inactive); with UACC-257, 14.8 µM (inactive); in the experiment with SF-268, 13.1 µM (inactive); in the experiment with MDA-N, 24 µM (inactive). For the same molecule, the GI50 in the experiment with SR is 2.86 µM (inactive); in the experiment on SF-295 it was 12.4 µM (inactive).
As to `BC(=O)NC(CC(C)C)C(=O)NCC(=O)NC1c2ccsc2C(=O)C1O.CN(C)C` (stereo not given), the GI50 in the experiment with CCRF-CEM was 31.6 µM (inactive); with SK-MEL-5, > 100 µM (inactive); in the experiment with HCT-116 it was > 100 µM (inactive); in the experiment with RPMI-8226 it was > 100 µM (inactive); with NCI-H460, 31.6 µM (inactive); with NCI/ADR-RES, > 100 µM (inactive). The GI50 in the experiment on 786-0, in the experiment on TK-10, in the experiment on Hs-578T, in the experiment on NCI-H522, in the experiment with A549 and in the experiment with SK-OV-3 was > 100 µM (inactive) each time. Also, the GI50 with OVCAR-8 was > 100 µM (inactive); in the experiment on SNB-75, > 100 µM (inactive); in the experiment with NCI-H226, 95.5 µM (inactive); in the experiment on UACC-257, > 100 µM (inactive); in the experiment with SF-268, > 100 µM (inactive); with MDA-N, > 100 µM (inactive). Also, the GI50 in the experiment on SR and with SF-295 was > 100 µM (inactive) each time.
`CCC1(O)C(=O)OCc2c1cc1n(c2=O)Cc2cc3c(N)cccc3nc2-1` (stereo not given) [RS-9-Aminocamptothecin]: the GI50 is < 0.01 µM (active) in the experiment on CCRF-CEM; 0.0255 µM (active) in the experiment on SK-MEL-5; 0.0171 µM (active) in the experiment on HCT-116; 0.0416 µM (active) in the experiment with RPMI-8226; < 0.0106 µM (active) in the experiment on NCI-H460; 0.0118 µM (active) in the experiment with NCI/ADR-RES. The GI50 in the experiment with 786-0 is 0.0108 µM (active); in the experiment on TK-10, 3.02 µM (inactive); in the experiment on Hs-578T, 3.65 µM (inactive); with NCI-H522 it was 0.0196 µM (active); with A549 it was 0.0354 µM (active); in the experiment on SK-OV-3, 0.0264 µM (active). Besides, the GI50 in the experiment on OVCAR-8 is 0.027 µM (active); with SNB-75 it was 0.013 µM (active); in the experiment on NCI-H226 it was < 0.01 µM (active); in the experiment on UACC-257, 0.121 µM (active); in the experiment on SF-268, < 0.01 µM (active); in the experiment with MDA-N, 0.182 µM (active). Further, the GI50 is < 0.01 µM (active) in the experiment on SR and 0.0102 µM (active) in the experiment on SF-295.

These data come from ChEMBL document CHEMBL1201862, “PubChem BioAssay data set” (2004).
